We go through ten molecules from patent publication US8648066B2 (Exelixis, Inc., priority 2009, dated 2014).

One assay has as its target PI3Kα (Homo sapiens, UniProt P42336). Kind of assay: PI3K biochemical assay (luciferase-luciferin ATP consumption). The note with it: 1.5 nM enzyme, 1 μM ATP, 10 μM PIP2; read-out: IC50 for PI3Kα in this assay. Here is the method:
PI3Kα activity is measured as the percent of ATP consumed following the kinase reaction using luciferase-luciferin-coupled chemiluminescence. Reactions were conducted in 384-well white, medium binding microtiter plates (Greiner). Kinase reactions were initiated by combining test compounds, ATP, substrate (PIP2), and kinase in a 20 μL volume in a buffer solution. The standard PI3Kalpha assay buffer is composed 50 mM Tris, pH 7.5, 1 mM EGTA, 10 mM MgCl2, 1 mM DTT and 0.03% CHAPS. The standard assay concentrations for enzyme, ATP, and substrate are 1.5 nM, 1 μM, and 10 μM, respectively. The reaction mixture was incubated at ambient temperature for approximately 2 h. Following the kinase reaction, a 10 μL aliquot of luciferase-luciferin mix (Promega Kinase-Glo) was added and the chemiluminescence signal measured using a Victor2 plate reader (Perkin Elmer). Total ATP consumption was limited to 40-60% and IC50 values of control compounds correlate well with literature references. Substituting PI3Kα with PI3Kβ, PI3Kγ, or PI3Kδ, the inhibitory activity of the compounds for the other isoforms of I3K were measured.

The target of a further assay is mTOR/GbL/Raptor (mTORC1) (Homo sapiens, UniProt P42345). Kind of assay: mTOR/GbL/Raptor (mTORC1) ELISA assay. The note with it: phosphorylation of 4E-BP1; 0.2 nM mTORC1, 10 μM ATP; read-out: IC50 in this assay (mTORC1 ELISA). In kind it is biochemical. Put shortly:
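Human mTORC1 (0.2 nM) phosphorylated 50 nM His-tagged 4E-BP1 with 10 µM ATP in HEPES pH 7.2 containing 10 mM MnCl2, 120 min at ambient temperature. Substrate was captured on Ni-chelate plates; phospho-4E-BP1 was detected by primary antibody and HRP secondary with luminescence.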

Chain of PI3Kα (P42336 whole entry, species assumed): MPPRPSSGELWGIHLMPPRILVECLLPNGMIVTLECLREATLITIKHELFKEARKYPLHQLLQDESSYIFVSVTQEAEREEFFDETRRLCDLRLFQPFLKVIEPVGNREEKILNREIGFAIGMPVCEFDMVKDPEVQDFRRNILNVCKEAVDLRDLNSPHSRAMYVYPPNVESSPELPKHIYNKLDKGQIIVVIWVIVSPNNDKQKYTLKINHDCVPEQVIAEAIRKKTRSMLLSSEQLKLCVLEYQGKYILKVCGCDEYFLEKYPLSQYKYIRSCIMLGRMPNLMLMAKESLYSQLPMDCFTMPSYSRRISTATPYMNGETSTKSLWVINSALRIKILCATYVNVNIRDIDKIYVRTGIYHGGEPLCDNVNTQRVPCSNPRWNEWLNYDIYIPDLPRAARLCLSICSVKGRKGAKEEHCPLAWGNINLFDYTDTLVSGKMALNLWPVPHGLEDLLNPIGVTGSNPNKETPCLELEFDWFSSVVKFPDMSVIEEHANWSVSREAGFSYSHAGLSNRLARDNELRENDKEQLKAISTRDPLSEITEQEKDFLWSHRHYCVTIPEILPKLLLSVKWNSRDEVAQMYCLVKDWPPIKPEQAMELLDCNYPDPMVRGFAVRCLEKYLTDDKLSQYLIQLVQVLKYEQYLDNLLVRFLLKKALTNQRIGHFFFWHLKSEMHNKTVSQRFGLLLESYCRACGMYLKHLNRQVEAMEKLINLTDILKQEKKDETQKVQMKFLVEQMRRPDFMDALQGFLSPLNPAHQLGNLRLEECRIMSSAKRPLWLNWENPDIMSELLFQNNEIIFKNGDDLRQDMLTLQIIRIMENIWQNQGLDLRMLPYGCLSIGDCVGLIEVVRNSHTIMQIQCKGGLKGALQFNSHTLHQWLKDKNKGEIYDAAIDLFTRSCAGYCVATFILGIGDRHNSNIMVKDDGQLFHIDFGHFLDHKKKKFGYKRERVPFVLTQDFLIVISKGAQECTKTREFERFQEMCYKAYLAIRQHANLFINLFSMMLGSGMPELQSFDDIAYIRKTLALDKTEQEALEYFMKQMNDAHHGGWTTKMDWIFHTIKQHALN
Chain of PI3Kα (P27986 whole entry partner, species assumed): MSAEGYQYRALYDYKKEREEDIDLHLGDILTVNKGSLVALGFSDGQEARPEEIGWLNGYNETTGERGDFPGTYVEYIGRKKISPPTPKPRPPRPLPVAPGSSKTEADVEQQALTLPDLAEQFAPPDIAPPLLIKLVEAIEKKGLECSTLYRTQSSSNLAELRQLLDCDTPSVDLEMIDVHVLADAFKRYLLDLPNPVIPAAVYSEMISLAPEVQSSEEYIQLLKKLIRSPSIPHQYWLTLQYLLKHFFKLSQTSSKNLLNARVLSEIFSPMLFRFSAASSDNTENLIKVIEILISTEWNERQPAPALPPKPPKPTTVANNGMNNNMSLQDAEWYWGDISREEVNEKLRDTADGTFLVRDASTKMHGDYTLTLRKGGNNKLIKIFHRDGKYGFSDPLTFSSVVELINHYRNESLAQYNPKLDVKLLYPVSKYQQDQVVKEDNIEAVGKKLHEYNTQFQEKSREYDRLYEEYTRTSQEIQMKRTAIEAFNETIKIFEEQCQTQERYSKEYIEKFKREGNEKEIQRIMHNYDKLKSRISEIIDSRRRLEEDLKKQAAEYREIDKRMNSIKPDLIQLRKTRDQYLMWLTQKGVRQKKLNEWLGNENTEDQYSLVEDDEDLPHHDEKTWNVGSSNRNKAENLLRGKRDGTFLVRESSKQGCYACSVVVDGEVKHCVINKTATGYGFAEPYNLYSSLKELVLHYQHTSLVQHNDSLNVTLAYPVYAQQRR

Consider `Cc1nc2ncc(-c3ccc4c(c3)CN(c3ncnc5c3ccn5C)CCO4)cc2[nH]1` [Example 557, 7-(2-methyl-1H-imidazo[4,5-b]pyridin-6-yl)-4-(7-methyl-7H-pyrrolo[2,3-d]pyrimidin-4-yl)-2,3,4,5-tetrahydro-1,4-benzoxazepine], for which the IC50 on PI3Kα was at least 2 µM; at mTOR/GbL/Raptor (mTORC1), 0.25 to 1 µM.
For `Cc1ncc(S(=O)(=O)N2CCOCC2)c(N2CCOc3ccc(-c4cnc5nc(C)[nH]c5c4)cc3C2)n1` [Example 561, 7-(2-methyl-1H-imidazo[4,5-b]pyridin-6-yl)-4-[2-methyl-5-(morpholin-4-ylsulfonyl)pyrimidin-4-yl]-2,3,4,5-tetrahydro-1,4-benzoxazepine], the IC50 lay in the range of 1 to 2 µM at PI3Kα and 0.25 to 1 µM at mTOR/GbL/Raptor (mTORC1).
In the same order, the values of `Cc1nc2ncc(-c3ccc4c(c3)CN(c3ncnc5c3C(C(F)(F)F)CCC5)CCO4)cc2[nH]1` (centres unmarked) [Example 562, 7-(2-methyl-1H-imidazo[4,5-b]pyridin-6-yl)-4-[5-(trifluoromethyl)-5,6,7,8-tetrahydroquinazolin-4-yl]-2,3,4,5-tetrahydro-1,4-benzoxazepine] are 1 to 2 µM and 0.25 to 1 µM.
Regarding `CC1(C)CCc2ncnc(N3CCOc4ccc(-c5cnc6c(c5)OCC(=O)N6)cc4C3)c2C1` [Example 572, 7-[4-(6,6-dimethyl-5,6,7,8-tetrahydroquinazolin-4-yl)-2,3,4,5-tetrahydro-1,4-benzoxazepin-7-yl]-2H-pyrido[3,2-b][1,4]oxazin-3(4H)-one], the IC50 at PI3Kα is 1 to 2 µM; at mTOR/GbL/Raptor (mTORC1), at least 2 µM.
With `COC(=O)Nc1cc(-c2ccc3c(c2)CN(c2ncnc4c2CC(C)(C)CC4)CCO3)cnc1Cl` [Example 581, methyl {2-chloro-5-[4-(6,6-dimethyl-5,6,7,8-tetrahydroquinazolin-4-yl)-2,3,4,5-tetrahydro-1,4-benzoxazepin-7-yl]pyridin-3-yl}carbamate], the IC50 on PI3Kα was at least 2 µM; at mTOR/GbL/Raptor (mTORC1), 1 to 2 µM.
Consider `Cc1ncc(S(=O)(=O)N(C)C)c(N2CCOc3ccc(-c4cnc5nc(C)[nH]c5c4)cc3C2)n1` [Example 611, N,N,2-trimethyl-4-[7-(2-methyl-1H-imidazo[4,5-b]pyridin-6-yl)-2,3-dihydro-1,4-benzoxazepin-4(5H)-yl]pyrimidine-5-sulfonamide], for which the IC50 was in the range of 1 to 2 µM at PI3Kα and 0.25 to 1 µM at mTOR/GbL/Raptor (mTORC1).
For `CC(=O)Nc1cc(-c2ccc3c(c2)CN(c2ncnc4c2CC(C)(C)CC4)CCO3)cnc1Cl` [Example 622, N-{2-chloro-5-[4-(6,6-dimethyl-5,6,7,8-tetrahydroquinazolin-4-yl)-2,3,4,5-tetrahydro-1,4-benzoxazepin-7-yl]pyridin-3-yl}acetamide], in that order: 1 to 2 µM and 0.25 to 1 µM.
With `CCNC(=O)c1cccc(-c2ccc3c(c2)CN(c2nc(C)nc4cc(OC)ccc24)CCO3)c1` [Example 638, N-ethyl-3-{4-[2-methyl-7-(methyloxy)quinazolin-4-yl]-2,3,4,5-tetrahydro-1,4-benzoxazepin-7-yl}benzamide], the IC50 at PI3Kα and on mTOR/GbL/Raptor (mTORC1) was at least 2 µM throughout.
As for `C[C@H](NC(=O)OCc1ccccc1)c1nc2ncc(-c3ccc4c(c3)CN(c3ncnc5c3CC(C)(C)CC5)CCO4)cc2[nH]1` [Example 647, phenylmethyl [(1S)-1-{6-[4-(6,6-dimethyl-5,6,7,8-tetrahydroquinazolin-4-yl)-2,3,4,5-tetrahydro-1,4-benzoxazepin-7-yl]-1H-imidazo[4,5-b]pyridin-2-yl}ethyl]carbamate], the IC50 is at least 2 µM at PI3Kα and 0.25 to 1 µM on mTOR/GbL/Raptor (mTORC1).
In the same order, the values of `Cc1cc(N2CCOc3ccc(-c4ccc5[nH]cnc5c4)cc3C2)nc(N)n1` [Example 688, 4-[7-(1H-benzimidazol-5-yl)-2,3-dihydro-1,4-benzoxazepin-4(5H)-yl]-6-methylpyrimidin-2-amine] are 1 to 2 µM and 0.25 to 1 µM.
